Broadly, the IC50 is the point on the concentration scale where inhibition reaches its midpoint.

SMILES strings stand for the structures.

One test deals with Cannabinoid receptor 1 (Rattus norvegicus, UniProt P20272). The test can be described thus: Displacement of [3H]CP-55940 from CB1 receptor in Sprague-Dawley rat cerebellar membrane. More on the design: species or system Cerebellum. For orientation: Loss of bound radioactivity is the signal in a displacement assay; it reports binding, not function.
Cannabinoid receptor 1, sequence (P20272 whole entry): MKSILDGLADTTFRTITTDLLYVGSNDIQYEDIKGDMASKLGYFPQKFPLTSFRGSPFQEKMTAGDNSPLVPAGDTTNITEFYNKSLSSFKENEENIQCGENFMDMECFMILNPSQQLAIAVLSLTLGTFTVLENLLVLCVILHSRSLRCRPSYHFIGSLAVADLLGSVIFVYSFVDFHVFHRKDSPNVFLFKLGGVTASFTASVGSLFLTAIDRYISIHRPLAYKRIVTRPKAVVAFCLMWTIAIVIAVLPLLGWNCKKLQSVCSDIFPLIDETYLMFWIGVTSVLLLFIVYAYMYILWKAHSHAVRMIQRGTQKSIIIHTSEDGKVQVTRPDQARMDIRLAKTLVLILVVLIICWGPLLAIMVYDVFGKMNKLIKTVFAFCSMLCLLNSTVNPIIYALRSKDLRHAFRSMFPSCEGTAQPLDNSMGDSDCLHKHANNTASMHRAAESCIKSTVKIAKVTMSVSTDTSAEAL
Turning to `Cc1c(-c2nnc(C3(C(F)(F)F)CC3)o2)nc(-c2ccc(Cl)cc2Cl)n1-c1ccc(Cl)cc1`, the IC50 was 55.1 nM. Compound `Cc1c(-c2nnc(C(C)(C)C)s2)nc(-c2ccccc2Cl)n1-c1ccc(Cl)cc1` returned an IC50 of 12.7 nM. For the compound `Cc1c(-c2nnc(C3(c4ccc(Cl)cc4)CC3)s2)nc(-c2ccc(Cl)cc2Cl)n1-c1ccc(Cl)cc1`, the IC50 worked out at 9.41 nM.

In turn, `Cc1c(-c2nnc(C3(C(F)(F)F)CC3)s2)nc(-c2ccc(Cl)cc2Cl)n1-c1ccc(Cl)cc1` returned a half-maximal inhibitory concentration (IC50) of 33.5 nM. Still for that read-out and setting: under `CCc1c(-c2nnc(C(C)(C)C)o2)nc(-c2ccccc2Cl)n1-c1ccc(Cl)cc1` stands 21.3 nM; under `Cc1c(-c2nnc(CC(C)C)s2)nc(-c2ccc(Cl)cc2Cl)n1-c1ccc(Cl)cc1`, 28.1 nM; under `Cc1c(-c2nnc(CC(C)C)o2)nc(-c2ccc(Cl)cc2Cl)n1-c1ccc(Cl)cc1`, 39.4 nM. In turn, `Cc1c(-c2nnc(C3(c4ccc(Cl)cc4)CC3)o2)nc(-c2ccc(Cl)cc2Cl)n1-c1ccc(Cl)cc1` returned an IC50 of 15.2 nM. For the compound `Cc1c(-c2nnc(C3(C(F)(F)F)CCC3)s2)nc(-c2ccc(Cl)cc2Cl)n1-c1ccc(Cl)cc1`, the concentration for half-maximal inhibition (IC50) was found to be 9.66 nM.

As to `Cc1c(-c2nnc(C(C)(C)C)o2)nc(-c2ccccc2Cl)n1-c1ccc(Cl)cc1`, the IC50 was 5.29 nM.

The compound `Cc1c(-c2nnc(C3(C(F)(F)F)CCC3)o2)nc(-c2ccc(Cl)cc2Cl)n1-c1ccc(Cl)cc1` gave an IC50 of 16.7 nM.

Another test deals with Cannabinoid receptor 2 (Homo sapiens, UniProt P34972). Put plainly: Displacement of [3H]WIN-55212-2 from human CB2 receptor expressed in CHO cells. The format is cell-based.
Cannabinoid receptor 2, sequence (P34972 whole entry): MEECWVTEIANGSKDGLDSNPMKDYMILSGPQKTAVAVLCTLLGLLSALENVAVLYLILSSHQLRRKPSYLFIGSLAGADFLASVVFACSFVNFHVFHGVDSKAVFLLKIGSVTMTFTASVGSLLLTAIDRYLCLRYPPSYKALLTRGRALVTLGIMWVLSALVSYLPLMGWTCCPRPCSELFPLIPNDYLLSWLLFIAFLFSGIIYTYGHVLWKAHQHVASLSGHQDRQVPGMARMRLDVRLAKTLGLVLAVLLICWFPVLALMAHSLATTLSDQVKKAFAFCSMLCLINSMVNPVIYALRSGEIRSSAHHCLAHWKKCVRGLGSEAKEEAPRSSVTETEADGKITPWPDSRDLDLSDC
The compound `CCc1c(-c2nnc(C3(c4ccc(C)cc4)CC3)o2)nc(-c2ccc(Cl)cc2Cl)n1-c1ccc(Br)cc1` registered a half-maximal inhibitory concentration (IC50) greater than 10000 nM. Still for that read-out and setting: under `CCc1c(-c2nnc(C3(c4ccc(Cl)cc4)CCC3)o2)nc(-c2ccc(Cl)cc2Cl)n1-c1ccc(Br)cc1` stands greater than 10000 nM; under `CCc1c(-c2nnc(C3(c4ccc(Cl)cc4Cl)CC3)s2)nc(-c2ccc(Cl)cc2Cl)n1-c1ccc(Br)cc1`, greater than 10000 nM.

`CCc1c(-c2nnc(C3(c4ccccc4)CC3)s2)nc(-c2ccc(Cl)cc2Cl)n1-c1ccc(Br)cc1` registered an IC50 greater than 10000 nM. Consider `CCc1c(-c2nnc(C3(c4ccc(OC)cc4)CC3)s2)nc(-c2ccc(Cl)cc2Cl)n1-c1ccc(Br)cc1`, for which the IC50 is greater than 10000 nM. The same measure, in the same setting: to `CCc1c(-c2nnc(C3(c4ccc(Cl)cc4Cl)CC3)o2)nc(-c2ccc(Cl)cc2Cl)n1-c1ccc(Br)cc1` belongs greater than 10000 nM. On to `CCc1c(-c2nnc(C3(c4ccc(C)cc4)CC3)s2)nc(-c2ccc(Cl)cc2Cl)n1-c1ccc(Br)cc1`, for which the IC50 was greater than 10000 nM. `CCc1c(-c2nnc(C3(c4ccc(Cl)cc4)CCC3)s2)nc(-c2ccc(Cl)cc2Cl)n1-c1ccc(Br)cc1`: the IC50 is greater than 10000 nM. For `CCc1c(-c2nnc(C3(c4ccc(Cl)cc4)CC3)s2)nc(-c2ccc(Cl)cc2Cl)n1-c1ccc(Br)cc1`, the IC50 was greater than 10000 nM.

For the origin of these results see ChEMBL document CHEMBL1139276, “Diarylimidazolyl oxadiazole and thiadiazole derivatives as cannabinoid CB1 receptor antagonists” (Bioorg Med Chem Lett, 2009).
